Reference: patent publication US9694089B2, “Integrin targeting agents and in-vivo and in-vitro imaging methods using the same” (Visen Medical, Inc., priority 2008, dated 2017)

Columns and labels:
4T-1 tumors = assay: In vivo imaging of 4T-1 tumors; parameters: species or system NU/NU mice; settings: 4 nmoles i.v., 24 hours post-injection
Protocol: In this experiment, NU/NU mice 6-8 weeks old (Charles River Laboratory, Wilmington, Mass.) were injected subcutaneously (s.c.) with 2×10^6 4T-1 cells bilaterally in each mammary fat pad. When tumors reached an approximate size of 3×3 mm (around 7 days after cell injection), mice were injected intravenously (i.v.) with 4 nmoles of each integrin agent (5 mice/probe+2 mice/no probe as control) in 100 μL volume via tail vein. Imaging was conducted 24 hours post-injection using a Fluorescence Molecular Tomography system (VisEn Medical, Bedford, Mass.).

A673 tumors [1] = assay: Effect of Avastin treatment on integrin and cathepsin B signals in A673 tumor-bearing mice; assay type: in vivo
Protocol: A673 tumor-bearing mice were randomized once their tumors reached the desired volume and injected i.v. with either E-6 (2 nmoles) or free dye (2 nmoles). For competition studies, mice were injected with the parent compound (100 nmoles) followed 5 minutes later by compound E-6 ([…]). For therapy studies, mice were treated with either 2 mg/kg Avastin (bevacizumab, Genentech, CA) or vehicle (PBS) intraperitoneally (i.p.) 2× week, and injected 7 days after beginning the treatment with 2 nmoles each of compound E-6 and ProSense (ProSense750, VisEn Medical, Bedford, Mass.) in a final volume of 200 μl PBS. ProSense is a protease-activatable fluorescence agent comprising fluorochromes linked to a peptide scaffold. Proteolytic cleavage of the scaffold by cathepsin B activity (and to a lesser extent cathepsins K, L, and S) releases the fluorochromes and results in extensive fluorescence (via dequenching). Imaging was performed 24 hours after administration of the agents using the FMT2500. Differential localization of fluorescent signal with compound E-6 and ProSense can be seen in the same animal. The wavelength of the laser was selected to 680 nm or 750 nm, corresponding to the absorption spectra of the fluorescent agents administered to the animal, enabling simultaneous imaging and quantification of 2 spectrally distinct agents.

ανβ3 [2] = molecular target: T1, ανβ3 (Homo sapiens, UniProt P05106+P06756); assay: Inhibition of cell attachment to vitronectin, HEK293-ανβ3 cells; assay type: cell-based; settings: for IC50: HEK293-ανβ3 cells, vitronectin-coated wells, 2 hours at 37° C., read-out: IC50 (nM), inhibition of cell attachment to vitronectin, αvβ3
T1 construct: expressed in transfected cells; host or cells: HEK293
Protocol: (§1) In this experiment, human embryonic kidney (HEK293) cells stably transfected with ανβ3 (HEK293-ανβ3 cells) were released with trypsin-EDTA and washed four times with serum-free MEM. […] Non-attached cells were gently washed away. Similar experiments were carried out with HEK293 cells stably transfected with ανβ5, α11bβ3, or α5β1. The attached cells were quantified by colorimetric detection of hexosaminidase enzymatic activity in a Vmax plate reader (Molecular Devices, Menlo Park, Calif.). The number of attached cells was quantified using a standard curve for each cell line assayed and expressed as a mean value of triplicate samples.

ανβ5 = molecular target: T2, ανβ5 (Homo sapiens, UniProt P06756+P18084); assay: Inhibition of cell attachment to vitronectin, HEK293 cells transfected with ανβ5; assay type: cell-based; settings: for IC50: HEK293 cells stably transfected with ανβ5, read-out: IC50 (nM), inhibition of cell attachment to vitronectin, αvβ5
T2 construct: expressed in transfected cells; host or cells: HEK293
Protocol: as §1

αIIbβ3 = molecular target: T3, αIIbβ3 (Homo sapiens, UniProt P05106+P08514); assay: Inhibition of cell attachment to vitronectin, HEK293 cells transfected with αIIbβ3; assay type: cell-based; settings: for IC50: HEK293 cells stably transfected with αIIbβ3
T3 construct: expressed in transfected cells; host or cells: HEK293
Protocol: as §1

α5β1 = molecular target: T4, α5β1 (Homo sapiens, UniProt P05556+P08648); assay: Inhibition of cell attachment to vitronectin, HEK293 cells transfected with α5β1; assay type: cell-based; settings: for IC50: HEK293 cells stably transfected with α5β1
T4 construct: expressed in transfected cells; host or cells: HEK293
Protocol: In this experiment, human embryonic kidney (HEK293) cells stably transfected with ανβ3 (HEK293-ανβ3 cells) were released with trypsin-EDTA and washed four times with serum-free MEM. Cells (25,000 cells/well) were added to microtiter wells coated with vitronectin and allowed to attach for 2 hours at 37° C. in a humidified incubator in the absence or presence of increasing concentrations of compound E-6 or unlabelled parent compound (as an inhibitor of E-6). Non-attached cells were gently washed away. Similar experiments were carried out with HEK293 cells stably transfected with ανβ5, α11bβ3, or α5β1. The attached cells were quantified by colorimetric detection of hexosaminidase enzymatic activity in a Vmax plate reader (Molecular Devices, Menlo Park, Calif.). The number of attached cells was quantified using a standard curve for each cell line assayed and expressed as a mean value of triplicate samples.

ανβ3 [3] = molecular target: T1, ανβ3; assay: Confocal microscopy cell binding assay on HEK293-ανβ3 cells; assay type: cell-based
Protocol: Cell binding assays using HEK293 cells stably expressing human ανβ3 were performed.
HEK293 cells stably transfected with ανβ3 (HEK293-ανβ3 cells) were plated onto poly-L-lysine coated Lab-Tek II chambered coverglass (Nuns, Rochester, N.Y.) the day before the assay. Cells were first incubated with DAPI (10 μg/ml) for 3 hours, followed by CellMask (Invitrogen, Carlsbad, Calif.) staining for 5 minutes. Cells were then washed 2× with PBS and incubated with E-6 (200 nM in PBS containing 5% serum) at 4° C. or 37° C. for 30 minutes. For the competition study, cells were incubated with parent compound (200 μM) for 1 hour before E-6 incubation. Confocal microscopy was performed on a Leica SP5 confocal system (Leica, Wetzlar, Germany).

ανβ3 [4] = molecular target: T1, ανβ3; assay: Equilibrium binding and dissociation measurements by flow cytometry on HEK293-ανβ3 cells
Protocol: The amount of probe bound to integrins on HEK293-ανβ3 cells was determined by flow cytometry (FACSCalibur, BD Biosciences, CA). Data was analyzed using FlowJo software and Kd values were calculated using SigmaPLot 10 software. For koff determination, HEK293-ανβ3 cells (1×10^6) were incubated with 100 nM of E-6 at 4° C. for 30 minutes and labeled cells were than transferred into PBS containing 10 mM of parent compound. The amount of probe bound to the integrins on HEK293-ανβ3 cells was determined by flow cytometry (FACSCalibur, BD Biosciences, CA) before mixing with unlabeled compound, and 1, 1.5, 2.5, 3.5, 4.5, 5.5, and 24 hours after mixing. Data was analyzed using FlowJo software and koff and t1/2 values calculated using SigmaPLot 10 software.

[5] = Plasma pharmacokinetics in mice; assay type: in vivo, BALB/c mice; settings: 2 nmoles i.v. bolus, two compartmental model
Text: Twenty-four female retired breeder BALB/c mice (Charles River Laboratories, Wilmington, Mass.) received a bolus intravenous (i.v.) injection of compound E-6 (2 nmoles in PBS). Terminal blood samples were collected by cardiac puncture from each mouse (following carbon dioxide asphyxiation). Three mice were sampled for each time point. Plasma was collected by centrifugation, diluted 1:2 in DMSO and fluorescence read using a fluorescence plate reader (Molecular Devices, Sunnyvale, Calif.). Data was normalized to a standard curve (FIG. 5A) prepared with known concentrations of E-6.

[6] = Biodistribution in A673 tumor-bearing mice; assay type: in vivo, NU/NU mice; settings: 2 nmoles i.v., 24 hr
Protocol: For the biodistribution studies, female NU/NU mice 6-8 weeks old (Charles River Laboratory, Wilmington, Mass.) were injected subcutaneously (s.c.) with A673 cells (5×10^6) in the first mammary fat pads. Once tumors reached the desired volume (measured with calipers using the formula volume mm^3=(length×width^2)/2), mice were injected i.v. with compound E-6 (2 nmoles). Mice were sacrificed by carbon dioxide asphyxiation 24 hr later and certain tissues removed, rinsed with saline, blotted dry, and the imaged on VisEn's FMT2500 using the reflectance mode. Regions of interest (ROIs) were drawn around each organ using the FMT Software and the mean fluorescence (reported as counts/energy) determined for each organ and normalized to the mean fluorescence in tumors taken to be 100%.

[7] = system: HUVEC (Human umbilical vein endothelial cells); assay: Cell binding assay by fluorescence microscopy, HUVEC; assay type: cell-based
Protocol: (§2) Cell binding assays were performed using HUVEC (Human umbilical vein endothelial cells) and human rhabdomyosarcoma A673 tumor cells. HUVEC or A673 (50,000 cells) (ATCC, Manassas, Va.) were seeded unto 8-well Lab-Tek chamberslides (Nalge-Nunc International, Naperville, Ill.) and left to adhere overnight at 37° C. in a humidified atmosphere containing 5% CO2. The following day, the medium was changed to fresh complete medium containing compound E-6 or free dye (20 nM), incubated for 30 minutes at 37° C., washed 2×with PBS and fixed with paraformaldehyde for 30 minutes at 4° C. Competition studies were performed by pre-incubating the cells for 5 minutes with parent compound (200 nM) before addition of E-6. The cells on the microscopy slides were then allowed to air dry protected from light. The slides were mounted with ProLong® Gold antifade reagent with DAPI (Molecular Probes, Eugene, Oreg.) and cured overnight at room temperature protected from light. Merged images of the nuclear staining (DAPI) and fluorescent signals were collected using fluorescence microscopy (Zeiss, Thornwood, N.Y.)

[8] = system: human rhabdomyosarcoma A673 tumor cells; assay: Cell binding assay by fluorescence microscopy, A673 tumor cells; assay type: cell-based
Protocol: as §2

A673 tumors [9] = assay: In vivo FMT imaging and quantification of signal in A673 tumor-bearing mice; parameters: species or system NU/NU mice
Protocol: Female NU/NU mice 6-8 weeks old (Charles River Laboratory, Wilmington, Mass.) were injected subcutaneously (s.c.) with A673 cells (5×10^6) in the first mammary fat pads. Once tumors reached the desired volume (measured with calipers using the formula volume mm^3=(length×width^2)/2), mice were injected i.v. with E-6 ([…]) in the absence or presence of excess, competing parent compound (100 nmoles). Control mice received free dye. For in vivo imaging, mice were anesthetized by gas anesthesia (isoflurane/oxygen mixture), placed in the VisEn's FMT2500 system imaging chamber one at a time, and imaged.
The fluorescent signal was quantified by drawing a three-dimensional ROI encompassing each tumor.

[10] = agent 20 nM, 30 minutes at 37° C.
[11] = pre-incubation 5 minutes with parent compound 200 nM

CCN1/C(=C/C=C(/C=C/C2N(CC)c3ccc4c(S(=O)(=O)O)cc(S(=O)(=O)O)cc4c3C2(C)C)c2ccc(C(=O)NCCCCCC(=O)NCc3cc4c(nc3CCCCCC[C@@H](CC(=O)O)c3cnc(C)nc3)NCCC4)cn2)C(C)(C)c2c1ccc1c(S(=O)(=O)O)cc(S(=O)(=O)O)cc21 (some centres unmarked) [Compound E-7]
imaging of tumors in vivo (4T-1 tumors): imaged effectively

Avastin: Avastin (bevacizumab, Genentech, CA), anti-angiogenic treatment [reference compound]
effect of treatment on signal produced by compound E-6 in tumors (A673 tumors [1]; Avastin 2 mg/kg i.p. 2× week, agents injected after 7 days): decreased

Cc1ncc([C@@H](CCCCCCc2nc3c(cc2CNC(=O)CCCN(C)S(=O)(=O)c2cccc4c5c(ccc24)N(CCCS(=O)(=O)O)/C(=C/C=C/C=C/C2=[N+](CCS(=O)(=O)[O-])c4ccc6c(S(=O)(=O)O)cc(S(=O)(=O)O)cc6c4C2(C)C)C5(C)C)CCCN3)CC(=O)O)cn1 [Compound E-6]
IC50 (ανβ3 [2]): 4.1 ± 0.3 nM
loss of affinity to ανβ3 compared to the parent compound (ανβ3 [2]; ratio of Table 4 IC50 values): 5 fold
IC50 (ανβ5): 33 nM
loss of affinity to ανβ5 compared to the parent compound (ανβ5; ratio of Table 4 IC50 values): 25 fold
IC50 (αIIbβ3): 39 nM
potency in binding to α11bβ3 compared to the parent compound (αIIbβ3; in words): retains higher potency
IC50 (α5β1): > 2000 nM
specific binding to α5β1 (α5β1; in words): no specific binding
internalization (receptor recycling, endocytosis) (ανβ3 [3]; 37° C. versus 4° C.): internalization at 37° C., but not at 4 °C
binding to HEK293-ανβ3 cells (confocal microscopy) (ανβ3 [3]; E-6 200 nM, 30 minutes, 4° C. or 37° C.): binds to the receptors on the surface of the cells
koff (ανβ3 [4]; 100 nM E-6, 4° C., HEK293-ανβ3 cells, chase with parent compound, read-out: dissociation rate constant koff): 0.000108 s⁻¹
Kd (ανβ3 [4]; HEK293-ανβ3 cells, 4° C., 30 minutes, single binding site model, read-out: apparent equilibrium binding constant (Kd)): 4.2 ± 0.6 nM
binding isotherms in the absence or presence of Mn^2+ (ανβ3 [4]; in words): practically identical
plasma t(1)1/2 (free E-6 clearing from circulation) [5]: 6 min
plasma t(2)1/2 (clearance of bound E-6) [5]: 210 min
tissue distribution of fluorescence [6]: highest concentration found in tumors, followed by the liver, small intestine and skin
fluorescent signal of labeled HUVEC cells [7, 10]: Significant fluorescent signal
fluorescent signal of labeled A673 cells [8, 10]: Significant fluorescent signal
fluorescence in tumors (FMT imaging) (A673 tumors [9]; A673 tumor-bearing mice, agent i.v., in words): readily detected
signal produced in tumors following Avastin treatment (A673 tumors [1]; A673 tumor-bearing mice, 2 nmoles agent, imaging 24 hours after): decreased by a greater amount than the signal produced by ProSense
imaging of tumors in vivo (4T-1 tumors): imaged effectively

Nc1ncnc2c1ncn2[C@@H]1O[C@H](OCP(=O)(O)O)C=C1F [Parent Compound, reference compound]
IC50 (ανβ3 [2]): 0.82 ± 0.2 nM
IC50 (ανβ5): 1.3 ± 0.2 nM
IC50 (αIIbβ3): > 10000 nM
IC50 (α5β1): > 10000 nM
effect on binding of E-6 to HEK293-ανβ3 cells (competition) (ανβ3 [3]; parent compound 200 μM for 1 hour before E-6 incubation): prevented
E-6 fluorescence intensity from HUVEC cells in the presence of a blocking dose [7, 11]: reduced
E-6 fluorescence intensity from A673 cells in the presence of a blocking dose [8, 11]: reduced
effect on total amount of E-6 signal in tumors (competition) (A673 tumors [9]; excess parent compound 100 nmoles, in words): effectively reduces
decrease of total E-6 fluorescence in tumors (A673 tumors [9]; parent compound 100 nmoles versus E-6 alone, p=0.011): 67%
